Where two headings read alike, the source gives them in different places.
Tests used:
SMN protein = experiment: SMN Protein Assay (MSD); format: cell-based, human; conditions: SMA patient fibroblasts (GM03813), 48 hours, read-out: SMN2 Potency- Protein: Protein FL EC50 (average)
Experimental: Compounds are tested on spinal muscular atrophy (SMA) patient fibroblasts (GM03813, Coriell) at doses ranging from 2.5 μM to 0.6 nM. 7000 cells/well are seeded in 96-well plates. Compounds are incubated for 48 hours and the cells are lysed with 100 μL of lysis buffer. 20 μL of lysate is used for SMN protein measurement by Mesoscale Discovery (MSD) assay developed by PharmOptima (Michigan). A standard curve prepared with SMN protein ranging from […] is used in each MSD plate to calculate the absolute SMN protein amount in each sample.

mHTT protein = experiment: mHTT Protein Assay (2B7-MW1, MSD); format: cell-based, human; conditions: GM04724 (CAG 70/20) Huntington's disease patient lymphoblast cells, 48 hours, read-out: HTT Potency - Protein: EC50 mHTT (average)
Experimental: Compounds are tested on GM04724 (CAG 70/20) Huntington's disease patient lymphoblast cells at doses ranging from 10 μM to 0.6 nM. 4,500 cells/well are seeded in 384 well plates. One plate replica is carried out for parallel viability testing by CellTiter Glo (CTG). Compounds are incubated for 48 hours. mHTT protein levels are assessed by the 2B7-MW1 assay via Mesoscale Discovery (MSD) as previously reported (Macdonald et al., 2014). The antibody pair is comprised of previously characterized monoclonals (2B7 and MW1) interrogating two regions for HTT conformation and biological properties: the N17 domain and the polyQ domain (Baldo et al., 2012; Ko et., 2001). 2B7-MW1 is dependent on subject/animal specific levels of HTT at the time of treatment. 2B7-MW1 is dependent on polyQ expansion (e.g., the higher the expansion the higher the signal) and on mHTT size (e.g., a similar polyQ will give higher signal with smaller HTT size). The viability readout is carried out by CTG according to the manufacturer's instructions. The results are show in Table B-5.

SMN2 = experiment: Quantitative Splicing Assay (SMN); format: cell-based; conditions: Homo sapiens, Fibroblast, SMA patient fibroblasts (GM03813), 24 h
Experimental: Spinal muscular atrophy (SMA) patient fibroblasts (GM03813, Coriell) are plated in 96-well plates at 50,000 cells/well. Immediately after plating, cells are dosed with compounds for 24 h at concentrations ranging from 2.5 μM to 0.6 nM (0.1% DMSO). Treated cells are lysed and cDNA synthesized using the Fast Advanced Cells-to-Ct kit (Thermofisher A35378) according to the manufacturer's instructions. 2 μL of each cDNA are used in qPCR reactions. The qPCR reactions are prepared in 384-well plates in 10 μL volume, using TaqMan™ Fast Advanced Master Mix (ThermoFisher; 4444965) with primers and probes shown in the table below. Reactions are run in a Quant Studio 6 qPCR instrument with default settings.

[1] = system: Huntingtin (HTT) transcripts; experiment: Quantitative Splicing Assay (HTT); format: cell-based; conditions: Homo sapiens, GM04724 (CAG 70/20) Huntington's disease patient lymphoblasts, 24 h
Experimental: GM04724 (CAG 70/20) Huntington's disease patient lymphoblasts (Coriell) are plated in 96-well v-bottom plates at 50,000 cells/well. Immediately after plating, cells are dosed with compound for 24 h at concentrations ranging from 2.5 uM to 0.15 nM (0.1% DMSO). Treated cells are lysed and cDNA synthesized using the Fast Advanced Cells-to-Ct kit (Thermofisher A35378) according to the manufacturer's instructions. 2 uL of each cDNA are used in qPCR reactions to confirm the compound-induced inclusion of a cryptic exon within intron 49 of the Huntingtin (HTT) transcripts. The qPCR reactions are prepared in 384-well plates in 10 uL volume, using TaqMan™ Fast Advanced Master Mix [ThermoFisher; 4444965] with primers and probes shown in the table below. Reactions are run in a Quant Studio 6 qPCR instrument with default settings.

Structure (SMILES)	EC50 (SMN protein) [nM]	EC50 (mHTT protein) [nM]	EC50 (SMN2; qPCR SMN FL, read-out: SMN2 Potency- Splicing: Splicing FL EC50 (average)) [nM]	IC50 (SMN2; qPCR SMN Δ7, read-out: SMN2 Potency- Splicing: Splicing D7 IC50 (average)) [nM]	EC50 ([1]; qPCR HTTcryp49b (cryptic exon within intron 49), read-out: HTT Potency - Splicing: E49b EC50 (average)) [nM]	EC50 ([1]; qPCR HTTex49_50, read-out: HTT Potency - Splicing: E49-50 EC50 (average)) [nM]
Oc1cc(-c2cn[nH]c2)ccc1-c1cc2c(nn1)N([C@@H]1C[C@H]3CC[C@@H](C1)N3)CCO2 [Compound 1, 2-(8-((1R,3s,5S)-8-azabicyclo[3.2.1]octan-3-yl)-7,8-dihydro-6H-pyridazino[4,3-b][1,4]oxazin-3-yl)-5-(1H-pyrazol-4-yl)phenol]	501 to 10000	501 to 10000				
Cn1cc(-c2ccc(-c3cc4c(nn3)N([C@@H]3C[C@H]5CC[C@@H](C3)N5)CCC4)c(O)c2)cn1 [Compound 2, 2-(8-((1R,3s,5S)-8-azabicyclo[3.2.1]octan-3-yl)-5,6,7,8-tetrahydropyrido[2,3-c]pyridazin-3-yl)-5-(1-methyl-1H-pyrazol-4-yl)phenol]	0.01 to 15	0.01 to 15	16 to 50	0.01 to 15	0.01 to 15	0.01 to 15
Oc1cc(-n2ccnc2)ccc1-c1cc2c(nn1)N([C@@H]1C[C@H]3CC[C@@H](C1)N3)CCO2 [Compound 3, 2-(8-((1R,3s,5S)-8-azabicyclo[3.2.1]octan-3-yl)-7,8-dihydro-6H-pyridazino[4,3-b][1,4]oxazin-3-yl)-5-(1H-imidazol-1-yl)phenol]	501 to 10000	501 to 10000				

Reference: US20230227474A1, “COMPOSITIONS AND METHODS FOR CORRECTION OF ABERRANT SPLICING” (SKYHAWK THERAPEUTICS, INC., priority 2019, published 2023)
